Data taken from patent US4120896A, “S-Phenenyltris(sulfonylimino)tri-anionic substituted benzene dicarboxylic acids and substituted alkyl amino acids and their salts” (America Cyanamid Company, priority 1977, dated 1978).
“And” between values parts separate entries of the source, which are not always exact repeats. Equal values may be shown once. Where a name gives a salt, the structure may show the parent alone. Read-outs that look alike come from different tables or passages of the source.

Assays:
[1] = test system: citrated sheep plasma; assay: In vitro anti-coagulant activity (AC): clotting of recalcified citrated sheep plasma with sheep RBC; assay type: biochemical; conditions: for AC Wells: Table I, two-fold serial dilution, higher well number indicates higher activity, sodium heparin positive control; for Anti-coagulant Activity (Wells) AC: Table II, in vitro
Procedure: The sheep RBC's, kept in suspension throughout the clotting incubation time, become enmeshed in the fibrin matrix if a clot forms. Upon centrifugation of the plate, untrapped RBC's form buttons, the sizes of which correspond to the degree of clot inhibition; this providing a measure of anti-coagulant activity (AC). Sodium heparin is used as a positive control and activity is reported in wells appearing in Table 1.
(§1) **Activity in wells a serial dilution assay. Higher well number indicates
(§2) higher activity. The serial dilutions are two -fold.

[2] = test system: anti-complement and anti-coagulant activities; assay: Intrinsic Therapeutic Index: separation of anti-complement (Code 026) and anti-coagulant (AC) activities; conditions: for Intrinsic Therapeutic Index: antilogarithm (base 2) of the difference in wells; for Logarithmic Difference Expressed As Wells: log base 2 difference, Code 026 minus AC
Source text: The computation of an Intrinsic Therapeutic Index (ITI) was devised to correlate the results expressed in wells, obtained in the in vitro Code 026 (C1 inhibitor) test and the in vitro anti-coagulant (AC) test into a meaningful value which would aid in the net evaluation of the activity of the compounds of this invention.
The ITI is thus a measure of the separation of anti-complement and anti-coagulant activities; the higher the numerical value the more therapeutically useful the separation of activities.

[3] = molecular target: activated human C1 (Homo sapiens, UniProt P09871); assay: Code 026 (C1 inhibitor) test: ability of activated human C1 to destroy fluid phase human C2 in presence of C4; assay type: biochemical; conditions: for C1 026 Wells: Table I, two-fold serial dilution, higher well number indicates higher activity; for Complement Inhibiting Activity (Wells) Code 026: Table II, in vitro
Source text: (§3) An active inhibitor protects C2 from C1 and C4; (ii) Test, Code 035 (C3-C9 inhibitor) - This test determines the ability of the late components of human complement (C3-C9) to lyse EAC 142 in the presence of appropriate dilutions of the test compound. An active inhibitor protects EAC 142 from lysis by human C3-C9; (iii) Test, Code 036 (C-Shunt inhibitor) - In this test human erythrocytes rendered fragile are lysed in autologous serum via the shunt pathway activated by cobra venom factor in the presence of appropriate dilutions of the test compound. Inhibition of the shunt pathway results in failure of lysis; (iv) Forssman Vasculitis Test - Here, the well known complement dependent lesion, Forssman vasculitis, is produced in guinea pigs by intradermal injection of rabbit anti-Forssman antiserum. The lesion is measured in terms of diameter, edema and hemorrhage and the extent to which a combined index of these is inhibited by prior intraperitoneal injection of the test compound at 200 mg/kg is then reported, unless otherwise stated; (v) Forssman Shock Test - Lethal shock is produced in guinea pigs by an i.v. injection of anti-Forssman antiserum and the harmonic mean death time of treated guinea pigs is compared with that of simultaneous controls; (vi) Complement Level Reduction Test -- In this test, the above dosed guinea pigs, or others, are bled for serum and the complement level is determined in undiluted serum by the capillary tube method of U.S. Pat. No. 3,876,376 and compared to undosed control guinea pigs; and (vii) Cap 50 Test -- Here, appropriate amounts of the test compound are added to a pool of guinea pig serum in vitro, after which the undiluted serum capillary tube assay referred to above is run. The concentration of compound inhibiting 50% is reported.
as §1, §2

[4] = test system: shunt pathway; assay: Code 036 (C-Shunt inhibitor) test: lysis of fragile human erythrocytes in autologous serum via shunt pathway activated by cobra venom factor; assay type: cell-based; conditions: Table I; two-fold serial dilution, higher well number indicates higher activity
Source text: An active inhibitor protects C2 from C1 and C4; (ii) Test, Code 035 (C3-C9 inhibitor) - This test determines the ability of the late components of human complement (C3-C9) to lyse EAC 142 in the presence of appropriate dilutions of the test compound. An active inhibitor protects EAC 142 from lysis by human C3-C9; (iii) Test, Code 036 (C-Shunt inhibitor) - In this test human erythrocytes rendered fragile are lysed in autologous serum via the shunt pathway activated by cobra venom factor in the presence of appropriate dilutions of the test compound. Inhibition of the shunt pathway results in failure of lysis; (iv) Forssman Vasculitis Test - Here, the well known complement dependent lesion, Forssman vasculitis, is produced in guinea pigs by intradermal injection of rabbit anti-Forssman antiserum. […]

[5] = test system: whole complement; assay: In vivo activity: whole complement level of serum of dosed guinea pigs, capillary tube assay; conditions: guinea pig; for % Inhibition, Intraperitoneal, 30 min / % Inhibition, Intraperitoneal, 60 min / % Inhibition, Intraperitoneal, 120 min: 200 mg/kg i.p., 200 mg/kg; for inhibition at 200 mg/kg: Cavia porcellus, iv, 200 mg/kg i.v.
Source text: as §3
With reference to Table I, guinea pigs weighing about 300 g were dosed intravenously (i.v.) or intraperitoneally (i.p.) with 200 mg/kg of the test compound dissolved in saline and adjusted to pH 7-8. […] The serum was tested for whole complement using the capillary tube assay. Percent inhibition was calculated by comparison with simultaneous controls. The results appear in Table I together with results of tests, code 026, 035, 036, Cap 50, % inhibition and Forssman shock.

[6] = test system: hereditary angioneurotic edema; conditions: literature report, New England J. Med. 286, 808-812 (1972); cited from earlier work
[7] = test system: complement system; conditions: literature report; cited from earlier work
[8] = test system: human serum total hemolytic complement; conditions: in vitro and in vivo, Pathologie Biologie 25, 33-36 (1977); cited from earlier work

With COC(=O)c1cc(NS(=O)(=O)c2cc(S(=O)(=O)Nc3cc(C(=O)OC)c(O)c(C(=O)OC)c3)cc(S(=O)(=O)Nc3cc(C(=O)OC)c(O)c(C(=O)OC)c3)c2)cc(C(=O)OC)c1O [5,5',5"-[s-Phenenyltris(sulfonylimino)]tri-2-hydroxy isophthalic acid hexamethyl ester] the “AC Wells” value [1] was -1 Wells.
In the case of O=C(O)c1cc(NS(=O)(=O)c2cc(S(=O)(=O)Nc3cc(C(=O)O)c(O)c(C(=O)O)c3)cc(S(=O)(=O)Nc3cc(C(=O)O)c(O)c(C(=O)O)c3)c2)cc(C(=O)O)c1O [5,5',5"-[s-Phenenyltris(sulfonylimino)]tri-2-hydroxy-isophthalic acid], the “Intrinsic Therapeutic Index” value [2] is reported as 128, the “Logarithmic Difference Expressed As Wells” value [2] is reported as “+7 Wells” and the “AC Wells” value [1] is reported as -1 Wells. For the same compound, the “Anti-coagulant Activity (Wells) AC” value [1] was -1 Wells, the “C1 026 Wells” value [3] was “+6 Wells” and the “Complement Inhibiting Activity (Wells) Code 026” value [3] was “+6 Wells”. The “Shunt Inhibition 036 Wells” value [4] was “+1 Wells”.
With O=C(O)c1cc(NS(=O)(=O)c2cc(S(=O)(=O)Nc3cc(C(=O)O)cc(C(=O)O)c3)cc(S(=O)(=O)Nc3cc(C(=O)O)cc(C(=O)O)c3)c2)cc(C(=O)O)c1 [5,5',5"-[s-Phenenyltris(sulfonylimino)]tri-isophthalic acid ] [5,5',5"-[s-Phenenyltris(sulfonylimino)]tri-isophthalic acid hexasodium salt, trisodium derivative compound with ethyl alcohol (2:5)] the “Intrinsic Therapeutic Index” value [2] was 64, the “Logarithmic Difference Expressed As Wells” value [2] was “+6 Wells” and the “AC Wells” value [1] was -1 Wells. For the same compound, the “Anti-coagulant Activity (Wells) AC” value [1] was -1 Wells, the “C1 026 Wells” value [3] was “+5 Wells” and the “Complement Inhibiting Activity (Wells) Code 026” value [3] was “+5 Wells”. The “% Inhibition, Intraperitoneal, 30 min” value ([5]; 30 mins.) was -62%, the “% Inhibition, Intraperitoneal, 60 min” value [5] was -53% and the “% Inhibition, Intraperitoneal, 120 min” value ([5]; 120 mins.) was -49%.
In the case of COCCOC(=O)c1cc(NS(=O)(=O)c2cc(S(=O)(=O)Nc3cc(C(=O)OCCOC)cc(C(=O)OCCOC)c3)cc(S(=O)(=O)Nc3cc(C(=O)OCCOC)cc(C(=O)OCCOC)c3)c2)cc(C(=O)OCCOC)c1 [5,5',5"-[s-Phenenyltris(sulfonylimino)]tri-isophthalic acid hexakis(2-methoxyethyl)ester], the “AC Wells” value [1] is reported as < 0 Wells.
O=C(O)c1cc(NS(=O)(=O)c2cc(S(=O)(=O)Nc3cc(C(=O)O)cc(C(=O)O)c3)cc(S(=O)(=O)Nc3cc(C(=O)O)cc(C(=O)O)c3)c2)cc(C(=O)O)c1 [5,5',5"-[s-Phenenyltris(sulfonylimino)]tri-isophthalic acid] [listing 1 of 2 here] gave an inhibition at 200 mg/kg ([5]; 2 min, 2 mins., read-out: % Inhibition, Intravenous, 2 min) of -88%, an inhibition at 200 mg/kg ([5]; 0.5 h, 30 mins., read-out: % Inhibition, Intravenous, 30 min) of -66% and an inhibition at 200 mg/kg ([5]; 2 h, 120 mins., read-out: % Inhibition, Intravenous, 120 min) of -53%.
With O=C(O)c1cc(NS(=O)(=O)c2cc(S(=O)(=O)Nc3cc(C(=O)O)cc(C(=O)O)c3)cc(S(=O)(=O)Nc3cc(C(=O)O)cc(C(=O)O)c3)c2)cc(C(=O)O)c1 [5,5',5"-[s-Phenenyltris(sulfonylimino)]tri-isophthalic acid] [listing 2 of 2 here] the “Intrinsic Therapeutic Index” value [2] was 512 and 256, the “% Inhibition, Intraperitoneal, 30 min” value ([5]; 30 mins.) was -74% and the “% Inhibition, Intraperitoneal, 60 min” value [5] was -74%. The “% Inhibition, Intraperitoneal, 120 min” value ([5]; 120 mins.) was -74%.
With COC(=O)c1cc(NS(=O)(=O)c2cc(S(=O)(=O)Nc3ccc(O)c(C(=O)OC)c3)cc(S(=O)(=O)Nc3ccc(O)c(C(=O)OC)c3)c2)ccc1O [5,5',5"-[s-Phenenyltris(sulfonylimino)]trisalicyclic acid trimethyl ester] the “AC Wells” value [1] was “≤ +1 Wells”.
For O=C(O)c1cc(NS(=O)(=O)c2cc(S(=O)(=O)Nc3ccc(O)c(C(=O)O)c3)cc(S(=O)(=O)Nc3ccc(O)c(C(=O)O)c3)c2)ccc1O [5,5',5"-[s-Phenenyltris(sulfonylimino)]trisalicylic acid], the “AC Wells” value [1] was -2 Wells.
In the case of Cc1ccc(C(=O)Nc2ccc(S(=O)(=O)O)c3cc(S(=O)(=O)O)cc(S(=O)(=O)O)c23)cc1NC(=O)c1cccc(NC(=O)Nc2cccc(C(=O)Nc3cc(C(=O)Nc4ccc(S(=O)(=O)O)c5cc(S(=O)(=O)O)cc(S(=O)(=O)O)c45)ccc3C)c2)c1 [Suramin], the “success in treatment of hereditary angioneurotic edema” value (“success in treatment” below) [6] is listed as “used with success” and the “anticomplementary effect / complement inhibition” value [7] is listed as “competitive inhibitor of the complement system”.
For Nc1ccc2cc(S(=O)(=O)O)cc(O)c2c1N=Nc1ccc(NC(=O)Nc2ccc(N=Nc3c(N)ccc4cc(S(=O)(=O)O)cc(O)c34)c(S(=O)(=O)O)c2)cc1S(=O)(=O)O [chlorazol fast pink, 3,3'-ureylenebis-[6-(2-amino-8-hydroxy-6-sulfo-1-naphthylazo)]benzenesulfonic acid, tetrasodium salt], the “anticomplementary effect / complement inhibition” value [7] is given as “anticomplementary effect”.
In the case of NCCCCCC(=O)O [epsilon-aminocaproic acid], the “success in treatment” value [6] is listed as “used with success”.
For NC[C@H]1CC[C@H](C(=O)O)CC1 [tranexamic acid], the “success in treatment” value [6] is listed as “used with success”.
For heparin, the “anticomplementary effect / complement inhibition” value [7] is given as “anticomplementary effect”.
For pentosan-poly-sulfoester, the “anticomplementary activity, reduction in total hemolytic complement activity” value [8] is given as “anticomplementary activity on human serum both in vitro and in vivo”.
